From US9403702B1, “Commodity water purifier” (A BETTER LIFE WORLDWIDE, LLC, priority 2015, dated 2016)
Where two headings read alike, the source gives them in different places.

Key:
[1] = test system: gram-positive and gram-negative bacteria; details: typical; cited from earlier work
[2] = test system: gram-positive and gram-negative bacteria; details: in vitro; cited from earlier work
[3] = bound to proteins on skin, mucosa, mouth tissue and teeth; cited from earlier work
[4] = water, cited from earlier work
Solubility in water = type: physicochemical; details: inventors' finding for CXC
Text: Although the biological properties of CX are valuable its engineering properties are somewhat challenging. […] However CX is crystalline, and becomes impermeable when formed into a filter. The impermeability renders the filter properties moot. And even if the filter properties remained intact, the presence of CX in effluent would raise the standard for registration with the EPA and for management of the effluent.
In an effort to resolve that problem, U.S. Pat. No. 7,427,409 discloses use of a hydrate, i.e., CX having 1.3 water molecules per chlorhexidine molecules, and the composition is an amorphous material from which a permeable filter can be manufactured. […] The present invention contemplates use of CXH for any value of n for waters of hydration. However the inventors have discovered an unexpected disadvantage of CXH, namely that a small amount of CXH is eroded from the amorphous solid when fluid passes over or through it and thus exits with the effluent. Any water purifier that allows such emissions must be registered with the EPA as a pesticide, as opposed to a purifier, moreover the maker and/or marketer of the filter would be responsible for the ultimate fate and effects of the CXH after it leaves the filter. Moreover CXH decomposes when heated, and the water of hydration evaporates at 96° C. […]

In the case of `[H]/N=C(\N/C(=N/[H])NCCCCCCNC(=N)NC(=N)Nc1ccc(Cl)cc1)Nc1ccc(Cl)cc1` [CX, N,N″″1,6-Hexanediylbis[N′-(4-chlorophenyl)(imidodicarbonimidic diamide)]], the “time of uptake of CX into the cells” value [1] is given as at most 20 s, the “time to kill virtually all gram-positive and gram-negative bacteria” value [2] is given as at most 30 s and the persistence of activity [3] is given as at least 48 h. The solubility [4] was “practically insoluble”.

For `[H]/N=C(\N/C(=N/[H])NCCCCCCNC(=N)NC(=N)Nc1ccc(Cl)cc1)Nc1ccc(Cl)cc1` [CXH, chlorhexidine hydrate], the solubility ([4]; hydrate) is given as “essentially insoluble”.

For chlorhexidine citrate [CXC], the solubility (Solubility in water) was “low solubility”.
